Biological target: human 11β-HSD1 (Homo sapiens, UniProt P28845)
Test: Biological Test Example 1: inhibition of a microsomal preparation of 11β-HSD1 (SPA)
Type: biochemical
Settings: microsomes from CHO cells overexpressing human 11β-HSD1; for inhibition at 0.1 µM: at 100 nM; for IC50: read-out: IC50 Range

human 11β-HSD1, sequence (P28845 whole entry): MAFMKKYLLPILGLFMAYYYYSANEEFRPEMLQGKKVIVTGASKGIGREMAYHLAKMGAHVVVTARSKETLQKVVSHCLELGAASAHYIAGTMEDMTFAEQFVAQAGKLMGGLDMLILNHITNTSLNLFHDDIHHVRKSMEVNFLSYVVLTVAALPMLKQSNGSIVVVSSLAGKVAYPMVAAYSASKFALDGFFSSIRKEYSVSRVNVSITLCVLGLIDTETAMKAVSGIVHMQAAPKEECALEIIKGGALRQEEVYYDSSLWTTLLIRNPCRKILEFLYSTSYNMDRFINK

Row | Compound | inhibition at 0.1 µM [%] | IC50 [nM]
1 | C[C@@H](c1ccc(Br)cc1)N1CC[C@](CC(C)(C)C(N)=O)(c2ccccc2)CC1=O [EXAMPLE 11, 3-((S)-1-((S)-1-(4-bromophenyl)ethyl)-2-oxo-4-phenylpiperidin-4-yl)-2,2-dimethylpropanamide] | 95.5 | < 100
2 | C[C@@H](c1ccc(Br)cc1)N1CC[C@@](CCC(N)=O)(c2ccc(F)cc2)CC1=O (single isomer, unassigned) [EXAMPLE 4 Isomer 2] | 27.8 | > 100
3 | C[C@@H](c1ccc(-c2ccc(=O)n(C)c2)cc1)N1CC[C@](CC(C)(C)O)(c2ccccc2)CC1=O [EXAMPLE 9, 5-(4-((S)-1-((R)-4-(2-hydroxy-2-methylpropyl)-2-oxo-4-phenylpiperidin-1-yl)ethyl)phenyl)-1-methylpyridin-2(1H)-one] | 92.7 | < 100
4 | CC[C@@H](c1ccc(Br)cc1)N1CC[C@](CC(C)(C)O)(c2ccccc2)CC1=O (single isomer, unassigned) [EXAMPLE 6 Isomer 1] | 98.3 | < 100
5 | C[C@@H](c1ccc(-c2ccc(F)cc2)cc1)N1CC[C@@](CCO)(c2ccccc2)CC1=O (single isomer, unassigned) [EXAMPLE 3 Isomer 2] | 61.3 | < 100
6 | C[C@@H](c1ccc(Br)cc1)N1CC[C@](CCO)(c2ccccc2)CC1=O (single isomer, unassigned) [EXAMPLE 2 Isomer 1] | 101 | < 100
7 | C[C@@H](c1ccc(-c2ccc(F)cc2)cc1)N1CC[C@](CCO)(c2ccccc2)CC1=O (single isomer, unassigned) [EXAMPLE 3 Isomer 1] | 97.9 | < 100
8 | C[C@@H](c1ccc(Br)cc1)N1CC[C@](CCC(N)=O)(c2ccc(F)cc2)CC1=O (single isomer, unassigned) [EXAMPLE 4 Isomer 1] | 96.8 | < 100
9 | CC[C@@H](c1ccc(Br)cc1)N1CC[C@@](CC(C)(C)O)(c2ccccc2)CC1=O (single isomer, unassigned) [EXAMPLE 6 Isomer 2] | 82.6 | < 100
10 | C[C@@H](c1ccc(-c2ccc(=O)[nH]c2)cc1)N1CC[C@](CC(C)(C)O)(c2ccccc2)CC1=O [EXAMPLE 13, 5-(4-((S)-1-((R)-4-(2-hydroxy-2-methylpropyl)-2-oxo-4-phenylpiperidin-1-yl)ethyl)phenyl)pyridin-2(1H)-one] | 94.3 | < 100
11 | C[C@@H](c1ccc(Br)cc1)N1CC[C@](CC(C)(C)C#N)(c2ccccc2)CC1=O [EXAMPLE 10, 3-((S)-1-((S)-1-(4-bromophenyl)ethyl)-2-oxo-4-phenylpiperidin-4-yl)-2,2-dimethylpropanenitrile] | 96 | < 100
12 | C[C@@H](c1ccc(-c2ccn(C)c(=O)c2)cc1)N1CC[C@](CC(C)(C)O)(c2ccccc2)CC1=O [EXAMPLE 8, 4-(4-((S)-1-((R)-4-(2-hydroxy-2-methylpropyl)-2-oxo-4-phenylpiperidin-1-yl)ethyl)phenyl)-1-methylpyridin-2(1H)-one] | 93 | < 100
13 | C[C@@H](c1ccc(Br)cc1)N1CC[C@](CC(C)(C)O)(c2ccccc2)CC1=O [EXAMPLE 7, (R)-1-((S)-1-(4-bromophenyl)ethyl)-4-(2-hydroxy-2-methylpropyl)-4-phenylpiperidin-2-one] | 98 | < 100
14 | C[C@@H](c1ccc(-c2cc[nH]c(=O)c2)cc1)N1CC[C@](CC(C)(C)O)(c2ccccc2)CC1=O [EXAMPLE 12, 4-(4-((S)-1-((R)-4-(2-hydroxy-2-methylpropyl)-2-oxo-4-phenylpiperidin-1-yl)ethyl)phenyl)pyridin-2(1H)-one] | 95.9 | < 100
15 | C[C@@H](c1ccc(-c2ccc(=O)n(C)c2)cc1)N1CC[C@@](CCCO)(c2ccc(F)cc2)CC1=O (single isomer, unassigned) [EXAMPLE 5 Isomer 2] | 10.7 | > 100
16 | C[C@@H](c1ccc(Br)cc1)N1CC[C@@](CCO)(c2ccccc2)CC1=O (single isomer, unassigned) [EXAMPLE 2 Isomer 2] | 73.8 | < 100
17 | C[C@@H](c1ccc(-c2ccc(=O)n(C)c2)cc1)N1CC[C@](CCCO)(c2ccc(F)cc2)CC1=O (single isomer, unassigned) [EXAMPLE 5 Isomer 1] | 94 | < 100

Source: US8680281B2, “Lactam inhibitors of 11-β-hydroxysteroid dehydrogenase 1” (Vitae Pharmaceuticals, Inc., priority 2008, dated 2014)
